Data on one compound can be found in BindingDB's records for patent US20230286943 (Sanofi, 2023).

The assay concerns the target T1, Interleukin-17A (Homo sapiens, UniProt Q16552).
T1 sequence (Q16552 whole entry): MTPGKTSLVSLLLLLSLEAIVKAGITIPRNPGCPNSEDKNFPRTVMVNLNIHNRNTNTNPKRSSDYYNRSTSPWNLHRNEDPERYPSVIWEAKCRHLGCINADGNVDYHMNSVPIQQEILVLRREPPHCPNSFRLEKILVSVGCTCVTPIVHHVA
In words: AlphaLISA Assay. Here is the method: The ability of the compounds to block binding of IL-17A to its receptor, IL-17RA, was analysed in a competition assay using AlphaLISA technology (Perkin Elmer). The assay is a bead based AlphaLISA where the IL-17RA is captured on the acceptor bead via an Fc tag and IL-17A is captured on the streptavidin donor bead via a biotinylated anti-IL-17A antibody.Assay buffer was prepared by adding 0.05% Tween-20 (v/v) and 0.1% BSA to Phosphate Buffered Saline (PBS). The assay was carried out in 384-well white low volume plates (Corning 4512). 10 μL of a 7.5 nM stock of human recombinant IL-17A (R&D Systems 7955-IL/CF) diluted in assay buffer was dispensed into the assay plate and compounds or DMSO vehicle control were added in a volume of 75 nL using a D300 dispenser (Hewlett Packard). The compounds were pre-incubated with the IL-17A for 24 h at room temperature (or for 30 min, where indicated by * in Table A below) prior to addition of 5 μL of a 5 nM stock of human recombinant IL-17RA/Fc chimera (R&D Systems 177-IR-100) diluted in assay buffer. […] The luminescence signal was measured using an Enspire plate reader (Perkin Elmer) with excitation at 680 nm and emission at 615 nm. Data were analysed using GraphPad Prism and fitted to a 4-parameter logistic equation.

Consider `Cc1nnc(C)n1-c1ccc(NC(=O)[C@@H](NC(=O)c2ccnn2C)C2CCCCCC2)nc1` [US20230286943, Example 62], for which the IC50 came out at 794 nM.
